From US10662214B2, “Compound of 4′-thionucleoside, as well as preparation method therefor, pharmaceutical composition thereof and application thereof” (Sichuan Kelun-Biotech Biopharmaceutical Co., Ltd., priority 2015, dated 2020)

Assays:
[1] = mice, significant dose administered intravenously; cited from earlier work
[2] = tested on: human pancreatic cancer cell Capan-1; experiment: Subcutaneous xenograft of human pancreatic cancer cell Capan-1 in a nude mouse (Experimental example 5); assay type: in vivo; conditions: once every 3 days, 6 times
Protocol: According to methods similar to those in sections 1 to 2 in Experimental example 2, pancreatic cancer cell Capan-1 was cultured as a monolayer in vitro, and inoculated, and the animals were randomized into groups.
Samples were prepared as described in Experimental example 2.
Mice bearing a tumor having a volume of 100-200 mm^3 were selected, and randomized into 7 groups (7 mice per group).
(§1) For statistical calculations of the test indexes, please refer to Experimental example 2.

[3] = tested on: gastric cancer cell NCI-N87; experiment: Subcutaneous xenograft of gastric cancer cell NCI-N87 in nude mice (Experimental example 2); assay type: in vivo; conditions: 190 μmol/kg i.v.
Protocol: (§2) This experimental example was used for the evaluation of the effectiveness of the compounds of the present invention in inhibiting the proliferation of a subcutaneous xenograft of human tumor cells via various routes of administration.
(§3) Gastric cancer cell NCI-N87 and colorectal cancer cell HCT-116 were cultured as a monolayer in vitro, and the culture conditions were RPMI-1640 culture medium supplemented with 10% heat inactivated Fetal Bovine Serum, and incubation in an incubator at 37° C. and 5% CO2. The cells were subcultured by treatment with trypsin-EDTA digestion.
(§4) The tumor cells were respectively inoculated into BALB/c nude mice (SPF grade, female, 16-18 g per mouse, about 6 to 8 weeks old, Beijing Vital River Laboratory Animal Technology Co., Ltd.).
(§5) Each nude mouse was inoculated with about 2.5×10^6 HCT-116 tumor cells or about 3×10^6 NCI-N87 tumor cells (suspended in 0.1 ml PBS) subcutaneously into the underarm of the right flank. After the inoculated tumor reached a size in the range of about 100-200 mm^3, nude mice bearing a tumor that is too small (smaller than 100 mm^3) or too big (bigger than 200 mm^3) were removed from the study, and the remaining ones were randomized into groups.
(§6) Sulfobutyl ether-β-cyclodextrin (SE-β-CD) was formulated with physiological saline to form a 10% solution, which was then filtered through a 0.22 μm sterile filter for later use.
(§7) An appropriate amount of the test compound was weighted, and added in DMSO. The resultant solution was vortexed to uniformity, and the 10% solution of SE-β-CD was added according to the desired concentration. The solution was vortexed to uniformity, and the final concentration of DMSO was adjusted to 5%. A gemcitabine injection (a positive control) was directly diluted to the desired concentration with physiological saline. A 10% solution of SE-β-CD containing 5% DMSO was prepared as a vehicle control.
(§8) Mice bearing a tumor having a volume of about 100-200 mm^3 were selected, and randomized into 5 groups (8 mice per group). The dosing volume was 10 mL/kg, and the administration (intravenous administration (i.v.) or oral administration (p.o.)) was performed twice a week for 3 weeks. The tumor volume and body weight were measured twice a week after the administration, and the mortality of animals was observed every day.
(§9) The diameter of a tumor was measured, and the tumor volume was calculated according to the following formula: V=0.5a×b^2, wherein a and b respectively represent the major and minor diameters of a tumor. The anti-tumor effect was evaluated by the tumor growth inhibition (TGI) (%). TGI (%)=[1−(VT-end−VT-start)/(VC-end−VC-start)]*100%
(§10) The body weight of an animal was measured twice a week.

[4] = tested on: human pancreatic cancer cell BxPC-3; experiment: Subcutaneous xenograft of human pancreatic cancer cell BxPC-3 in a nude mouse (Experimental example 3); assay type: in vivo; conditions: once every 3 days, 4 times
Protocol: According to methods similar to those in sections 1 to 2 in Experimental example 2, pancreatic cancer cell BxPC-3 was cultured as a monolayer in vitro, and inoculated, and the animals were randomized into groups.
An appropriate amount of the test compound was weighted out, and added in DMSO. The 10% solution of SE-β-CD was then added according to the desired concentration, and the final concentration of DMSO was adjusted to 2.5%. A gemcitabine injection (a positive control) was diluted to the desired concentration with physiological saline. A 10% solution of SE-β-CD containing 2.5% DMSO was prepared as a vehicle control.
Mice bearing a tumor having a volume of 100-200 mm^3 were selected, and randomized into 14 groups (7 mice per group). The dosing volume was 20 mL/kg, and the administration (intravenous administration (i.v.)) was performed once every 3 days, for 4 times in total.
as §1

[5] = tested on: human pancreatic cancer cell PANC-1; experiment: Subcutaneous xenograft of human pancreatic cancer cell PANC-1 in a nude mouse (Experimental example 6); assay type: in vivo; conditions: 0.06 mmol/kg i.v., once every 3 days, 6 times
Protocol: This test was performed according to experimental example 5.
Mice bearing a tumor having a volume of 100-200 mm^3 were selected, and randomized into 4 groups (6 mice per group).

[6] = tested on: colorectal cancer cell HCT-116; experiment: Subcutaneous xenograft of colorectal cancer cell HCT-116 in nude mice (Experimental example 2); conditions: 190 μmol/kg i.v.
Protocol: as §2, §3, §4, §5, §6, §7, §8, §9, §10

[7] = tested on: human pancreatic cancer cell BxPC-3; experiment: Subcutaneous xenograft of human pancreatic cancer cell BxPC-3 in a nude mouse (Experimental example 4); assay type: in vivo
Protocol: According to methods similar to those in sections 1 to 3 in Experimental example 2, pancreatic cancer cell BxPC-3 was cultured as a monolayer in vitro, and inoculated; the animals were randomized into groups; and samples were prepared.
Mice bearing a tumor having a volume of 80-250 mm^3 were selected, and randomized into 6 groups (8 mice per group). The dosing volume was 10 mL/kg.
as §1
The test results obtained by administrating (intravenous administration (i.v.) or oral administration (p.o.)) once a week for 3 weeks are shown in table 7-2.

Nc1ccn([C@@H]2O[C@H](CO)[C@@H](O)C2(F)F)c(=O)n1 [Gemcitabine injection, Gemcitabine, reference compound]
death or gastrointestinal toxicity after intravenous dosing [1]: no death or gastrointestinal toxicity
TGI (%) ([2]; 0.02 mmol/kg i.v.): 15.4%
TGI (%) ([2]; 0.19 mmol/kg i.v.): 78.9%
TGI (%) ([3]; twice a week for 3 weeks): 107%
Tumor regression, CR (complete tumor regression) ([3]; animals out of 8): 2/8 CR,
Tumor regression, PR (partial tumor regression) ([3]; animals out of 8): 6/8 PR
TGI (%) ([4]; 0.04 mmol/kg i.v.): −2.2%
TGI (%) ([4]; 0.12 mmol/kg i.v.): 28.9%
TGI (%) ([4]; 0.24 mmol/kg i.v.): 45.5%
TGI (%) [5]: 64.4%
Mortality [6]: 0
TGI (%) ([6]; twice a week for 3 weeks): 92%
Tumor regression ([6]; 14 days after last administration): 0
TGI (%) ([7]; 0.12 mmol/kg i.v., twice a week for 3 weeks): 23.6%
TGI (%) ([7]; 0.23 mmol/kg i.v., once a week for 3 weeks): 23.6%
